The results in this text go back to patent US8178089B2, “Neuronal progenitors from feeder-free human embryonic stem cell culture” (The University of Georgia Research Foundation, Inc, priority 2004, dated 2012).

The subject of assay [1] is NEP cells. Description: Plating efficiency of subcultured NEP cells (day 1). The note with it: for plating efficiency versus control: NEP after 6 months in LIF supplemented culture; for effect on plating efficiency / plating efficiency: early NEP cells (1 mo). Type of assay: cell-based, human. As to the method: (§1) Effect of LIF and bFGF on subcultured NEP cells. Two groups of cultured NEP cells, one less than 1 month (<1 mo) and the other approximately 6 months (6 mo) in NB27 (described in previous section), were dissociated by 0.05% trypsin to obtain a single-cell suspension, and 50,000 cells/cm^2 were plated in one of the subculture media on polyornithine and laminin-coated dishes. Two concentrations of two growth factors (LIF; 0 or 10 ng/ml and bFGF; 0 or 20 ng/ml) in NB27, were applied to cells. Cells were harvested from each group and nuclei were counted by flow cytometry on days 1 and 14. Plating efficiency rate was calculated as the ratio of cells harvested to cells plated on day 1. Proliferation was measured on day 14. For each replicate, counted nuclei from the four treatment groups were added to obtain an overall total. The total cell number within each group was then divided by the overall total cell number and expressed as a percent.

The subject of another assay is OLIG2 expression. Description: OLIG2 gene expression by real time RT-PCR in NEP. Format: cell-based. Conditions: human NEP, FIG. 2A. From the text:
The motor neuron progenitor gene, OLIG2, is expressed early in motor neuron induction. Novitch, et al., Neuron, 31(5), 773-89 (2001). […] Subsequently, we examined expression of the motor neuron gene HLBX9 to investigate the effect of Shh and RA on motor neuron differentiation. Based on the OLIG2 results, bFGF was included at the time of RA or RA plus Shh exposure. The combination of RA and bFGF produced a 2·20 fold increased in HLBX9 expression level, and combining bFGF, Shh and RA increased HLBX9 expression 8·49 fold higher than bFGF alone in human NEP (FIG. 2B).

Assay [2] has as its system NEP cells. The assay can be described thus: Proliferation of subcultured NEP cells (nuclei count by flow cytometry, day 14). Conditions: for proliferation rate: long term cultured NEP cells (6 mo). Format: cell-based, human. As for the experimental part: as §1
The test system of assay [3] is voltage-gated sodium channels. Description: Intracellular calcium measurement (Fluo-3AM, FLIPR) in human neuroprogenitor cells. Type of assay: cell-based. The note with it: 30 μM veratridine, 96-well plates. As to the method:
In this experiment, human neuroprogenitor cells were seeded in 96-well plates and incubated with dye loading medium containing 2 μM Fluo-3AM and 0.04% pluronic acid in Locke's buffer. After 45 minutes of incubation, the neuroprogenitor cells were gently washed three times in fresh Locke's buffer. Following the final wash, 150 μl of Locke's buffer was added to each well and the plate was transferred to the FLIPR® incubation chamber (Molecular Devices). […] These cells can therefore be used to determine the effect of an antagonist or agonist on calcium uptake or whether an agent is a likely antagonist or agonist of calcium uptake.

Take “bFGF: basic fibroblast growth factor, growth factor”: in the assay with NEP cells [1], the “plating efficiency versus control” value was “higher plating efficiency than the control”, the “effect on plating efficiency” value was “no effect” and the plating efficiency entry is on record as “about 50%”. In addition, the OLIG2 expression change entry in the assay with OLIG2 expression is “significantly increased”. In addition, in the assay on NEP cells [2] (early NEP cells (1 mo), day 14, bFGF 20 ng/ml, control 8.9%), the “cell proliferation (group cell number as percent of overall total)” value turned out to be 38.5%. The proliferation rate result with NEP cells [2] is “increased proliferation rate”.
In the case of “LIF: Leukemia Inhibitory Factor, growth factor”, in the assay on NEP cells [1], the “plating efficiency versus control” value is “higher plating efficiency than the control”, the “effect on plating efficiency” value is given as “no effect” and the plating efficiency entry was “about 50%”. Besides, the “effect on proliferation of NEP cells” value with NEP cells [2] (early NEP cells (1 mo), in presence or absence of bFGF) is “no effect”. Besides, the proliferation rate result in the assay with NEP cells [2] was “increased proliferation rate”.
For `COc1ccc(C(=O)O[C@H]2CC[C@@]3(C)[C@@H]4CC[C@H]5[C@]6(O)C[C@H](O)[C@@]7(O)[C@@H](CN8C[C@@H](C)CC[C@H]8[C@@]7(C)O)[C@]6(O)C[C@@]53O[C@]24O)cc1OC` [veratridine], the “elevation of intracellular [Ca2+]” value in assay [3] is ~145 % of control.
